Reference: patent US10328164B2, “Radiopharmaceutical products” (GE HEALTHCARE LIMITED, priority 2006, dated 2019)

Details: tetrofosmin kit with ascorbic acid radioprotectant, without air addition step; post preparation
From the text: The tetrofosmin kit may optionally comprise a radioprotectant, as defined above. […] Med. Comm., 21, 845-849 (2000)] and the Myoview™ Package Instructions.

For `CCOCC[PH+](CCOCC)CC[PH+](CCOCC)CCOCC.CCOCC[PH+](CCOCC)CC[PH+](CCOCC)CCOCC.[O]=[99Tc]=[O]` [^99mTc-tetrofosmin, ^99mTc(O)2(tetrofosmin)2^+], which post-reconstitution stability is on record?
The post-reconstitution stability was “up to 12 hours”.
